Data as given in article PMC10628858, “Investigation of new ferrocenyl-artesunate derivatives as antiparasitics” (Dalton Transactions (Cambridge, England : 2003), 2023).
Where two headings read alike, the source gives them in different places.

Legend:
[1] = Kinetic aqueous solubility, turbidimetric assay; format: physicochemical; conditions: turbidimetric assay, buffer not named
Experimental: The kinetic solubility of the complexes was determined by means of a turbidimetric assay. The complexes were first dissolved in dimethyl sulfoxide (DMSO) which was then serially diluted in either phosphate buffered saline (PBS) or 4-(2-hydroxyethyl)-1-piperazineethanesulfonic acid (HEPES). The extent of precipitation was then measured using the absorbance at 620 nm.
PBS was prepared by dissolving one PBS tablet in 200 mL of distilled water at 25 °C yielding a buffered solution containing 10 mM phosphate buffer, 3.0 mM KCl and 140 mM NaCl. The pH was then confirmed to be at 7.4 with a pH meter. A 0.025 M HEPES buffer was prepared by dissolving HEPES free acid 5.00 mmol in distilled water (±180 mL) and titrating the solution with 0.100 M NaOH until a pH 7 was reached, the volume was then made up to 200 mL using distilled water. A 10.0 mM stock of each drug was prepared in DMSO. […] 4 μL of the drugs was then pipetted into a 96-well plate loaded with 196 μL of either the desired buffer solution or DMSO. The test plates were then incubated at 37 °C for 4 hours following which the UV-Vis absorbance was measured at 620 nm and the absorbances corrected by subtracting the blank.

[2] = Cyclic voltammetry (oxidation/reduction potentials); format: physicochemical; conditions: Ag/AgCl electrode, scan rate 100 mV s^−1, 0.100 M [NBu4][PF6] in MeCN
[3] = Aqueous stability (hydrolysis) by UV-Vis kinetic scan in 10% MeOH (aq); format: physicochemical
Experimental: Since biological systems are comprised of water, the behavior and stability of a drug in aqueous media is important. To determine the stability, each complex was dissolved in MeOH and then diluted to 10% MeOH (aq). The solutions were then monitored by UV-Vis spectroscopy using a kinetic scan in the range 190–1100 nm over 1 hour. […] Hydrolysis was also supported by RP-HPLC in which new peaks emerged corresponding to the starting ferrocene precursors, F2 and F4. […] […] The major difference being between C1/C2 and C3/C4 is the nature of the linkage either being an ester or an amide bond. It is expected that the hydrolysis of C2 would occur quicker due to the more labile nature of the ester bond.
UV-Vis studies were performed by dissolving each complex in methanol to a concentration of 1 mM. This was then diluted using distilled water in a 10% methanol/water mixture giving a final concentration of 100 μM. The complexes were then monitored using a kinetic scan between the range 190–1100 nm scanning each minute over the course of one hour. […]

HEK293 cells = test: MTT cell viability assay, HEK293; format: cell-based, human; conditions: for IC50: 48 h
Experimental: (§1) To assess the cytotoxicity of the four compounds a MTT cell viability assay using human embryonic kidney (HEK293) and human prostatic (PNT1A) cell lines were performed. […] The long chain compounds C1 and C3 were also shown to be non-cytotoxic towards the HEK293 cell line.
(§2) The immortalised human prostatic epithelial cell line, PNT1A (Sigma Aldrich, 95012614) was cultured in RPMI-1640 containing 10% foetal calf serum (Life Technologies, South Africa). The human embryonic kidney cell line HEK293 (ATCC) was cultured in DMEM (Life Technologies, South Africa). Both cell lines were cultured at 37 °C under 5% CO2 with 1% penicillin and streptomycin. Cancer cell cytotoxicity was evaluated using the MTT viability assay according to our previous method.[49] Briefly, cells were seeded at a density of 3 × 10^3 cells per well in 96-well plates and allowed to settle overnight. A 100 mM stock of C1/C2 and a 50 mM stock solution of C3/C4 in DMSO was prepared from which dilutions were made. The compound was then added to the cells in triplicate to obtain the indicated concentrations and 0.1% DMSO. Controls included cells treated with […] DMSO alone. After 48 h, 10 μL of 5 mg mL^−1 MTT (3-(4,5-dimethylthiazol-2-yl)-2,5-diphenyltetrazolium bromide) (Sigma-Aldrich) was added, and incubated with the cells for 4 h, followed by addition of 100 μL 10% SLS, 0.01 M HCL. The plates were read at 595 nm on a Multiscan FC plate reader (Thermo Scientific) and the data was fitted to a variable slope dose–response curve using Graphpad prism v6 to obtain the cytotoxicity IC50. The assay was repeated independently three times where inhibition was observed.

PNT1A cells = test: MTT cell viability assay, PNT1A; format: cell-based, human; conditions: 48 h
Experimental: as §1, §2

[4] = tested on: T. gondii (ΔKu80::mNeonGreen); test: T. gondii growth inhibition assay (mNeonGreen fluorescence); format: cell-based, Toxoplasma gondii; conditions: three independent experiments in triplicate, ± SEM
Experimental: […]. The rate of hydrolysis of C2 and C4 is closely correlated to the activity seen against T. gondii, such that the more readily the complex separates into its constituents, parts the better the overall activity.
To further investigate whether the accumulation of ROS was implicated in the MoA, the growth inhibition studies were repeated in the presence of the ROS scavenger N-acetyl cysteine (NAC) (Table 5).
Growth inhibition assays were performed in black, clear-bottomed 96 well plates preseeded with Human foreskin fibroblasts (HFFs) as described previously.[48] ΔKu80:mNeonGreen T. gondii were counted using a hemeocytometer and media from the host-cell seeded plate was aspirated and replaced with either 200 μL of D3 or 200 μL of media + 5000 parasites per well. Infected cells were incubated for 2 hours at 37 °C with 5% CO2 to allow for invasion. Following this, the media was removed and replaced with 100 μL fresh media. 100 μL of media containing 100 μM of the indicated drug in sterile DMSO was added and serially diluted. The parasites were then incubated for four days at 37 °C with 5% CO2 then flourescense read using the PHERAstar microplate reader. After removal of background, fluorescence values were normalised to untreated and plotted. Data analysis and non-linear regression was performed in Prism.

[5] = no curve could be fitted within one hour
[6] = four days, in HFF host cells, read-out: IC50 against T. gondii
[7] = with 5 mM NAC (ROS scavenger), read-out: IC50 + NAC against T. gondii
[8] = change in absorbance at 254 nm over one hour, ExpDec1 fit

| SMILES | Solubility range [1] | E 1/2 [2] | E Ox [2] | E Red [2] | ΔE [2] | Half-life [3, 5] | Cytotoxicity towards HEK293 (HEK293 cells) | IC50 (HEK293 cells) | IC50 (PNT1A cells) | IC50 [4, 6] | IC50 [4, 7] | Aqueous solubility [1] | Half-life [3, 8] | Rate constant (hydrolysis) [3, 8] |
| --- | --- | --- | --- | --- | --- | --- | --- | --- | --- | --- | --- | --- | --- | --- |
| CC1CCC2C(C)C(OC(=O)CCC(=O)OCCNC(=O)[c-]3cccc3)OC3OC4(C)CCC1C32OO4.[Fe+2].c1cc[cH-]c1 (centres unmarked) [Compound C1] | 25 to 51 µg/mL | 0.623 V | 0.658 V | 0.588 V | 0.0700 V | >1 h | non-cytotoxic | > 100000 nM | > 100000 nM | 680 ± 31 nM | 830 ± 130 nM |  |  |  |
| CC1CCC2C(C)C(OC(=O)CCC(=O)NCCNC(=O)[c-]3cccc3)OC3OC4(C)CCC1C32OO4.[Fe+2].c1cc[cH-]c1 (centres unmarked) [Compound C3] | 3 to 6 µg/mL | 0.616 V | 0.660 V | 0.571 V | 0.0890 V | >1 h | non-cytotoxic | > 50000 nM | > 50000 nM | 1200 ± 64 nM | 1500 ± 140 nM | 5 to 10 µM |  |  |
| CC1CCC2C(C)C(OC(=O)CCC(=O)NC[c-]3cccc3)OC3OC4(C)CCC1C32OO4.[Fe+2].c1cc[cH-]c1 (centres unmarked) [Compound C4] | 3 to 6 µg/mL | 0.364 V | 0.400 V | 0.327 V | 0.0730 V |  |  | 36000 ± 2700 nM | > 50000 nM | 600 ± 35 nM | 1200 ± 179 nM | 5 to 10 µM | 0.155 ± 0.0035 h | 0.074 ± 0.0016 min⁻¹ |
